Experimental data published in article PMC7722660 (Neuropsychopharmacology Reports, 2020).
Several values for one entry are separate records, joined by “and”; a condition that tells them apart may be missing. Identical values can stand only once. Each block holds one compound with its values, some of them ahead of it.

Key:
OX2 receptor [1] = conditions: cited from earlier work
OX2 receptor [2] = conditions: agonist ref 21; cited from earlier work
[3] = Spontaneous locomotor activity in rats; format: in vivo, rat; conditions: up to 100 mg/kg, data not shown
[4] = tested on: 55 molecular targets, including neurotransmitter receptors, ion channels, and transporters; assay: Cerep ExpresSProfile off-target panel; format: binding; conditions: 10 μmol/L
rats [5] = assay: Rat EEG; format: in vivo; conditions: 100 mg/kg p.o., vs vehicle
[6] = Pharmacokinetic study in rats; format: in vivo; conditions: rat, plasma
[7] = Brain penetration: plasma and brain concentrations in rats; conditions: rat, in vivo, po
rats [8] = conditions: cited from earlier work

Compound: orexin‐B
fold higher affinity for the OX2 receptor than for the OX1 receptor (OX2 receptor [1]): 10 fold

Compound: [Ala^11, D‐Leu^15]‐orexin‐B [ADL‐OXB]
selectivity for the OX2 receptor over the OX1 receptor (OX2 receptor [2]): 400 fold

inhibitory effects on 55 other molecular targets [4]: ≤ 50%
half-life ([6]; iv, 1 mg/kg): 22.2 min
Cmax ([6]; po, 30 mg/kg): 1180 ng/mL
Tmax ([6]; po, 30 mg/kg): 15 min
half-life ([6]; po, 30 mg/kg): 25.8 min
concentration at 30 min ([7]; 30 mg/kg): 110 ng/mL and 28 ng/g
concentration at 30 min ([7]; 100 mg/kg): 601 ng/mL and 198 ng/g
Compound: COc1c(C#N)ccnc1N1C2CCC1CN(C(=O)c1cccnc1-n1cccn1)C2 [SDM‐878, 2‐(3‐(2‐(1H‐pyrazol‐1‐yl)nicotinoyl)‐3,8‐diazabicyclo[3.2.1]octan‐8‐yl)‐3‐methoxyisonicotinonitrile]
effect on spontaneous locomotor activity [3]: did not affect
effect on duration of REM sleep (rats [5]): did not observe a significant effect
effect on duration of NREM sleep (rats [5]; P < .05): significantly increased
effect on time spent in wakefulness (rats [5]; P < .05): significantly decreased
effect on total sleep (rats [5]; P < .05): significantly increased

Compound: Cc1cc(C)nc(N2CC3CN(C(=O)c4c(F)cccc4-n4nccn4)CC3C2)n1 (stereo not shown) [JNJ‐42847922]
effect on REM sleep (rats [8]; rats ref 19, 23): did not exert a significant effect
effect on NREM sleep time (rats [8]; rats, first 2 hours of sleep ref 19, 23): prolonged
